The test deals with Nucleic Acid. Put plainly: Binding constant were determined from viscometric titrations with closed circular superhelical DNA.
Molecule `CN(C)CCCNc1c2ccc(Cl)cc2nc2ccc(F)cc12` came in with a K app of 160000. In the case of `CN(C)CCCNc1c2ccc(Cl)cc2nc2ccc(Cl)cc12` it was 160000; in that of `Cc1ccc2nc3cc(Cl)ccc3c(NCCCN(C)C)c2c1`, 290000; in that of `COc1ccc2nc3cc(Cl)ccc3c(NCCCN(C)C)c2c1`, 210000. The result for `CN(C)CCCNc1c2ccccc2nc2cc(Cl)ccc12` reads 130000; that for `CSc1ccc2nc3cc(Cl)ccc3c(NCCCN(C)C)c2c1`, 200000.

Source of the values: ChEMBL document CHEMBL1123147, “The intercalation of 6-chloro-substituted-9-[[3-(dimethylamino)propyl]amino]acridines with DNA” (J Med Chem, 1985).
